The values below come from publication PMC12867150, “A fungi-derived cyclic peptide enhances Th9-mediated antitumor immunity by targeting ZAP70 and SREBP1” (The Journal of Clinical Investigation, 2025).

Several values for one entry are separate records, joined by “and”; a condition that tells them apart may be missing. Equal entries are not always repeated.

In one assay the test system is Th0 cells. Description: Th0 polarization, IFN-γ by flow cytometry (Figure 1E). Format: cell-based, mouse. The method, then: Naive CD4^+ T cells were isolated from the spleens of C57BL/6J or CD45.1^+ OT-II mice using the MojoSort Mouse CD4 Naive T Cell Isolation Kit (BioLegend, catalog 480040), following the manufacturer’s protocol. Purified cells were cultured in RPMI-1640 medium supplemented with 10% FBS, 1% penicillin-streptomycin, and 0.1% β-mercaptoethanol (Gibco, catalog 21985023).
T cell polarization was initiated under plate-bound anti-CD3 (2 μg/mL, clone 17A2, BioXCell, catalog BE0002) and soluble anti-CD28 (1 μg/mL, clone 37.51, BioXCell, catalog BE0015-1) stimulation, with the addition of cytokines and neutralizing antibodies specific to each subset. For Th9 cells, these included IL-4 (10 ng/mL, Peprotech, catalog 400-04), TGF-β (1 ng/mL, EPOTO Biotech, catalog HF-2021), anti–IL-12 (5 μg/mL, clone C17.8, BioXCell, catalog BE0051), and anti–IFN-γ (10 μg/mL, clone XMG1.2, BioXCell, catalog BE0055); for Th1 cells, these included IL-12 (10 ng/mL, GenScript, catalog Z03211-50) and anti–IL-4 (5 μg/mL, clone 11B11, BioXCell, catalog BE0045); for Th2 cells, these included IL-4 (50 ng/mL), anti–IFN-γ (20 μg /mL), anti–IL-12 (5 μg/mL), Th17 cells: IL-6 (20 ng/mL, EPOTO Biotech, catalog MF-1006), TGF-β (1 ng/mL), IL-1β (10 ng/mL, Peprotech, catalog AF-211-11B), anti–IFN-γ (10 μg/mL), anti–IL-12 (5 μg/mL), and anti–IL-4 (5 μg/mL); and for Tregs, these included TGF-β (3 ng/mL). […]
(In general: Flow cytometry measures light scatter and fluorescence of single cells or particles in a stream.)

The next assay has as its system Th9 cells. Description: Seahorse oxygen consumption rate, mitochondrial stress test (Figure 4F-H). Format: cell-based, mouse. On the procedure:
After stimulation, cells were washed, resuspended in Seahorse XF assay medium (Agilent Technologies; pH 7.40–7.45, catalog 103576-100) and seeded at 5 × 10^5 cells per well in Seahorse XF96 microplates. Plates were centrifuged at 400 × g for 5 minutes to promote adherence and monolayer formation, and all conditions were tested in quadruplicate.
Oxidative phosphorylation was assessed on the same instrument using the XFe96 Mitochondrial Stress Test Kit (Agilent Technologies, catalog 103015-100). Oligomycin (1.5 μM), FCCP (0.5 μM), and rotenone plus antimycin A (0.5 μM each) were injected sequentially to measure OCR as a proxy for oxidative phosphorylation. The mitochondrial stress response was derived from OCR values obtained before and after each injection.

The next assay concerns Raji-luciferase tumor. As to the kind of experiment: Raji-luciferase xenograft, survival (Figure 8L). The format is in vivo, NSG mice. As to conditions: EpA-treated human Th9 CAR T cells 2 × 10^6 i.v.; n = 5; result in words. The text has this: Representative plots (A) and quantification (B) (n = 4). (C) Quantitative PCR analysis of IL9, IRF4, and SPI1 mRNA expression in human Th9 cells (n = 3). (D) Flow-cytometric analysis of mitochondrial membrane potential in human Th9 cells (n = 3). (E) Luciferase-based assay analysis of intracellular ATP levels in human Th9 cells (n = 5). (F) Flow-cytometric analysis of phosphorylated ZAP70 in human Th9 cells (n = 3). (G) Flow-cytometric analysis of TNF-α expression in human Th9 cells (n = 4). (H) Cytotoxicity assay of EpA-treated or control CD19 CAR Th9 cells against Raji lymphoma target cells at indicated effector-to-target (E/T) ratios (n = 3). (I) Schematic diagram of the in vivo Raji-luciferase xenograft model in NSG mice receiving control or EpA-treated human Th9 CAR T cells. (J and K) Representative bioluminescence imaging (J) and quantification of tumor radiance (K) in NSG mice at indicated time points after adoptive transfer. […] Statistical significance was determined using 2-tailed unpaired Student’s t test (B–H), 2-way ANOVA followed by Šidák’s post hoc test (K), and log-rank test (L). […]
For xenograft models, M-NSG mice were intravenously inoculated with 1 × 10^6 Raji-CD19 tumor cells. […] Tumor progression and immune cell infiltration were subsequently monitored according to experimental endpoints.
In general terms: Xenograft models place foreign cells or tissue in a host animal.

anteiso-C15 Leu7 surfactin [EpA]: the “IFN-γ expression under Th0 polarization” value in the assay with Th0 cells (EpA 10 μM, individual replicates, n = 4) was 31 and 32.2 and 35 and 26.8. Besides, the “effect on Th0 polarization” value in the assay with Th0 cells (result in words) was “did not affect”. Moreover, the “OCR, basal and maximal respiration” value with Th9 cells (EpA 10 μM, 4 days, result in words) was “higher basal and maximal respiration”. In addition, the “Basal Oxygen Consumption Rate” value with Th9 cells (Figure 4G, individual replicates, (n = 5), in pmol/min (unit assumed)) is 169.53 and 169.91 and 173.53 and 152.33 and 158.62. Further, the “Max Oxygen Consumption Rate” value in the assay with Th9 cells (Figure 4H, individual replicates, (n = 5), in pmol/min (unit assumed)) was 295.4 and 261.85 and 290.65 and 188.88 and 233.85. Moreover, the survival entry in the assay with Raji-luciferase tumor was “significantly prolonged survival”.
